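Cells were grown in 96-well plates and exposed to each compound for 48 hours at five concentrations; endpoints were interpolated linearly between bracketing concentrations, or set to the highest concentration if not reached. Here, GI50 denotes the concentration required for 50% inhibition of growth. Definition used: TGI = concentration required for complete inhibition of growth.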
How the values were obtained:
Experiment in all cases: inhibition of tumour cell growth, NCI panel, 48 h
ACHN renal = tested on: ACHN renal
CAKI-1 renal = tested on: CAKI-1 renal
HOP-92 NSCLC = tested on: HOP-92 NSCLC
M14 melanoma = tested on: M14 melanoma
MCF7 breast = tested on: MCF7 breast
SF-295 CNS = tested on: SF-295 CNS
SK-OV-3 ovarian = tested on: SK-OV-3 ovarian
UO-31 renal = tested on: UO-31 renal

SMILES	GI50 (ACHN renal) [µM]	TGI (ACHN renal) [µM]	GI50 (CAKI-1 renal) [µM]	TGI (CAKI-1 renal) [µM]	GI50 (HOP-92 NSCLC) [µM]	TGI (HOP-92 NSCLC) [µM]	GI50 (M14 melanoma) [µM]	TGI (M14 melanoma) [µM]	GI50 (MCF7 breast) [µM]	TGI (MCF7 breast) [µM]	GI50 (SF-295 CNS) [µM]	TGI (SF-295 CNS) [µM]	GI50 (SK-OV-3 ovarian) [µM]	TGI (SK-OV-3 ovarian) [µM]	GI50 (UO-31 renal) [µM]	TGI (UO-31 renal) [µM]
CCN1[C@@H](C(=O)NC23CCC(C(=O)O)(CC2)CC3)[C@H](c2cccc(Cl)c2F)[C@]2(C(=O)Nc3cc(Cl)ccc32)C12CCCCC2	0.0878	3.77	< 0.0149	0.817	2.15	6.45	3.22	13.1	0.0523	3.97	2.21	7.29	3.03	12	0.0779	3.6
O=C1/C(=C\c2ccco2)Oc2ccccc21		> 100		> 100		> 100		> 100		> 100		> 100		> 100		> 100
CC(/C=C/C(O)=C1/C(=O)CNC1=O)=C\[C@@H](C)[C@H]1O[C@@]2(C)O[C@H](C(=O)[C@@H]3O[C@@]32C)[C@@H]1C		41.9		57				> 100		39.8				46.8		33.2
O=C(CC1(O)C(=O)Nc2ccc(F)cc21)c1ccc(C(=O)NCC2CCC3(CC2)OOC2(CCCCC2)OO3)cc1 (configuration not stated)	2.89	10.7	14	27.7	1.91	3.82	12.2	39.3	8.23	29	3.69	16.2	14.1	31.9	0.858	2.28
COc1ccc(-c2nc(-c3nc4cc(Cl)c(F)cc4[nH]3)c3ccccn23)cc1	7.34	> 100	5.35	> 100	3.24	> 100	5.15	> 100	4.57	> 100			> 100	> 100	2.62	35.7
CC(=O)/C=C/c1ccc(Nc2c3ccccc3nc3occ(Cl)c23)cc1	3.32	12.5	0.159	1.07	4.51	29.4	4.49	18.2	1.07	14.3			8.21	65.6	14.2	> 100
Cc1ccc(S(=O)(=O)c2nc(-c3ccccc3)oc2S(C)(=O)=O)cc1	1.76	3.13	1.8	3.21	1.84	3.48	1.74	3.63			12.2	24.6	15.9	29.3	1.48	2.81
O=[N+]([O-])c1cc([As](Br)c2ccc(O)c([N+](=O)[O-])c2)ccc1O		3.77		3.42		2.96		4.33		> 20.8		3.61		9.71		3.23
CC(C)(C)[Si](C)(C)OC1[C@@H](CNC(N)=O)O[C@@H](n2cnc3c(NC(=O)Nc4ccccc4)ncnc32)[C@H]1O[Si](C)(C)C(C)(C)C (some centres not stated)	2.42	8.62	1.76	7.12			2	8.11	1.83	8.51	2.04	7.9	3.29	9.53	1.92	8.29
CSc1ncnc2c1ncn2CC(=O)C1CCC2C3CCC4=CC(=O)CCC4(C)C3CCC12C (configuration not stated)		23.8		> 70.2		> 88.3		8.88		14.9		23.7		> 100		2.52
CO[C@H]1/C=C/O[C@@]2(C)Oc3c(C)c(O)c4c(O)c(c(/C=N/N5CCN(C)CC5)c(O)c4c3C2=O)NC(=O)/C(C)=C\C=C\[C@H](C)[C@H](O)[C@@H](C)[C@@H](O)[C@@H](C)[C@H](OC(C)=O)[C@@H]1C		> 100		> 100				> 100		> 100				> 100		> 100
CC(C)(C)NCC(O)COc1c(Br)c(Br)c(Br)c2c1OC(C)(C)C2 (configuration not stated)	1.9	3.35	1.71	3.22	1.52	3.17	1.81	3.66	1.76	3.24	2.26	3.95	1.83	3.3	1.76	3.23
COc1ccc(-c2c(C#N)c(N)nc(N3CCOCC3)c2C#N)cc1	20.2	> 100	13	31.8	14.3	87.7	22.6	72.8	21.6	98.9	15	50.1	4.99	27.3	13.1	49.2
CN(C)CCCOc1cccc(NC2=C(Cl)C(=O)C(Nc3cccc(OCCCN(C)C)c3)=C(Cl)C2=O)c1	1.78	3.16	1.45	2.76	0.58	1.28	1.33	2.74	0.184	0.408	1.73	3.18	5.45	18.3	1.45	2.76
ClCc1cccc(Cn2cnc3c(Cl)nc(Cl)nc32)c1	1.91	3.72	2.22	5.85	1.84	3.63	1.79	3.41	2.04	6.4	4.37	17.1			1.58	3.06
COc1cc(OC)c2sc(-c3ccc(-n4cncc4-c4ccc(OC)c(OC)c4)cc3)nc2c1	> 100	> 100					> 100	> 100	5.37	> 100	7	> 100	> 100	> 100		
COc1cccc(CNc2ncnc3c2ncn3C2OC(CO)C(O)C2O)c1O (configuration not stated)	0.128		0.0667				0.248	> 100	0.369	> 100	0.165	0.66	0.179	0.932	0.123	> 28.6
Cc1cc(NCc2cc(Nc3ccnc4cc(Cl)ccc34)ccc2F)nc(N2CCOCC2)n1			1.52	3.21	1.34	3.13			2.12	6.15			1.7	3.36	1.3	2.71
COc1ccc(C(=O)c2sc3nc(-c4ccccc4OC)ccc3c2N)cc1OC	7.24	> 100	27.6	> 100			6.05	> 100	4.75	> 100	4.37	54.3	30.6	> 100	5.26	> 100
CCCC1(CN2c3ccccc3Sc3ccc(Cl)cc32)CCN(CC)C1 (configuration not stated)	1.76	3.31	1.7	3.2			1.86	3.49	1.86	3.5	1.7	3.3	1.77	3.45	1.51	2.97
C=C1C(=O)O[C@H]2[C@H]1CC/C(COC(=O)NCc1ccc(Cn3c(=O)sn(CCCCC)c3=O)cc1)=C\CC[C@@]1(C)O[C@@H]21	1.68	3.14	2.84	12.9	1.38	3.01	1.89	4.76			12.5	25.1	8.77	21.1	1.46	2.8
COc1ccc(-c2cnnn2-c2nonc2-n2cccc2)cc1OC	7.8	> 100	3.39	> 100			3.28	> 100	3.17	> 100	3.94	44.6	5.18	29.8	6.27	> 100
Cn1c(=O)n(C)c2cc(CNCCNc3ccnc4cc(Cl)ccc34)ccc21	25.4	93.4	36.3	> 100	10.1	49.6			28.6	> 100	15.3	40.1	72.7	> 100	23.3	> 100
CCSc1ccc([C@@H]2[C@@H](O)C(=O)N2c2cc(OC)c(OC)c(OC)c2)cc1	0.0141	43.7				42.1	< 0.01	15.8	< 0.01	15.7	< 0.01	17.5	0.0271	38.1	0.21	34.2
C=C1C(=O)OC2C1CCC(C)C1(O)C=CC(=O)C21C (configuration not stated)		> 10				> 10				> 10		> 10		> 10		> 10

— PubChem BioAssay (NCI)
